Experimental findings from patent EP1145713A1, “TELOMERASE INHIBITORS” (KYOWA HAKKO KOGYO CO., LTD., priority 1999, dated 2000) are described below.

Data set [1] deals with human leukemia cell line CCRF-CEM. Kind of data set: Induction of the reduction of telomere in cell system (Test Example 4). Format: cell-based. As to the method:
After a test compound was. allowed to contact with human leukemia cell line CCRF-CEM for 21 days, a chromosomal DNA was extracted and the telomere length was measured by a known method (Biotechniques, 23: 476-484 (1997)). That is, the extracted chromosomal DNA was adsorbed on a membrane, and hybridization was carried out by using a labeled oligonucleotide probe having a sequence complementary to the telomere sequence. The signal of the label on the membrane proportional to the telomere DNA length was detected and digitalized.

The test system is the same in data set [2]. Description: Telomerase inhibitory activity in cell system (Test Example 3, TRAP assay of cell extract). The data set is classed as cell-based. How it is done:
After a test compound was allowed to contact with human leukemia cell line CCRF-CEM for 7 days, a cell extraction solution was prepared and the enzyme activity was measured by a known method (U.S. Patent 5,629,154). That is, the cell extraction solution was prepared using a buffer solution containing 0.5% CHAPS {3-[(3-cholamidopropyl)dimethylammonio]-1-propanesulfonate}. using the extraction solution, TRAP (Telomeric Repeat Amplification Protocol) assay was carried out (TRAPEZE™ ELISA Telomerase Detection Kit, manufactured by Oncor Co.) Inhibitory ratio was calculated based on the ratio of the enzyme activity in the extraction solution from the cells treated with the test compound relative to the enzyme activity in the extraction solution from the test compound-untreated cells.

The mark [3] stands for this setting: contact for 21 days, 13, 30 µmol/L.
Setting [4] is: contact for 7 days, 8.9, 13 µmol/L.
Where [5] appears, read: contact for 21 days, 2, 4.4 µmol/L.
[6] abbreviates: contact for 7 days, 2, 4.4 µmol/L.

As for `CC1=C(CCC(=O)O)c2cc3[nH]c(cc4nc(cc5[nH]c(cc1n2)c(CCC(=O)O)c5C)C(C)=C4CCC(=O)O)c(CCC(=O)O)c3C` [Compound 1], in data set [1] (setting [3]), the cytotoxicity entry was “no remarkable cytotoxicity was shown” and the telomere reduction result is listed as “induced telomere reduction”. In data set [2] (setting [4]), the cytotoxicity result was “no remarkable cytotoxicity was shown” and the “inhibition of intracellular telomerase” value is “inhibited intracellular telomerase”.

Turning to `C[n+]1ccc(-c2c3nc(c(-c4cc[n+](C)cc4)c4ccc([nH]4)c(-c4cc[n+](C)cc4)c4nc(c(-c5cc[n+](C)cc5)c5ccc2[nH]5)C=C4)C=C3)cc1` [TMPyP4], the cytotoxicity entry in data set [1] (setting [5]) is reported as “no remarkable cytotoxicity was shown”; in data set [1] (contact for 21 days, concentrations higher than 4.4 µmol/L) it was “no chromosomal DNA was recovered at higher concentrations because of the cytotoxicity”; in data set [2] (setting [6]), “no remarkable cytotoxicity was shown”; in data set [2] (contact for 7 days, concentrations higher than 4.4 µmol/L) it was “no cellular protein was recovered at higher concentrations because of the cytotoxicity”. Besides, the telomere reduction result in data set [1] (setting [5]) is on record as “did not induce telomere reduction”. Also, in data set [2] (setting [6]), the “inhibition of intracellular telomerase” value is “did not inhibit telomerase”.
